The source made the active and inactive calls.
Assays:
[1] = target: T1, Heat shock factor protein 1 (Mus musculus, UniProt P38532); assay: enhancement of HSF1-driven luciferase signal – cell-based, NIH3T3, luminescence, dose retest, confirmation (AID 435004); assay type: functional;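 further: stress induced by proteasome inhibitor MG132 added 30 min after compound; luciferase reporter driven by HSF1 response element in NIH3T3 cells; actives raise luminescence as potentiators of the MG132 stress response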
T1 sequence (P38532 whole entry): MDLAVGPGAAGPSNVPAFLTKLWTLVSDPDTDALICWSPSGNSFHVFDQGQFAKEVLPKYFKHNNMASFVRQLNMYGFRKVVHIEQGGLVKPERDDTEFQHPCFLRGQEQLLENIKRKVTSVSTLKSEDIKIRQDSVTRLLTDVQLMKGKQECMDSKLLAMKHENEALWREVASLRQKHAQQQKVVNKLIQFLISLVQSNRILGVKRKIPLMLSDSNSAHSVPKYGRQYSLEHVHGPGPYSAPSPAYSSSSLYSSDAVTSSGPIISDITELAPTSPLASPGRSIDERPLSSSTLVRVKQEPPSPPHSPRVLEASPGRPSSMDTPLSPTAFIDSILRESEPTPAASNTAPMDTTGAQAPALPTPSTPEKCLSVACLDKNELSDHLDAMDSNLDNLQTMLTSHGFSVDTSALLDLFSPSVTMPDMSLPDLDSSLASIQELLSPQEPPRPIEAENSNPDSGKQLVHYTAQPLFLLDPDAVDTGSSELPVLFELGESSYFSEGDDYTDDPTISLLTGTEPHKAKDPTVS

[2] = target: Eukaryotic translation initiation factor 4E (Mus musculus, UniProt P63073); assay: blockers of eIF4G binding by eIF4E – biochemical, TR-FRET, dose response (AID 855); assay type: functional;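 further: potency for disrupting eIF4E binding to eIF4GI seen as loss of FRET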
Chain of Eukaryotic translation initiation factor 4E (P63073 whole entry): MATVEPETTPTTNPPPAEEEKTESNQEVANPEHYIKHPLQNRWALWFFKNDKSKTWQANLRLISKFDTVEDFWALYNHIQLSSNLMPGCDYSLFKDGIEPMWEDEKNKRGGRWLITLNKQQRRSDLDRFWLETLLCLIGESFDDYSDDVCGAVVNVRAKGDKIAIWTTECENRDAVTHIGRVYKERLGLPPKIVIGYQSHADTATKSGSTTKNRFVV

[3] = Trypanosoma cruzi growth suppression in host cells – NIH3T3 host cells, beta-gal luminescence, confirmation (AID 2044); assay type: functional, cell-based;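 further: intracellular parasites grown in NIH/3T3 mouse fibroblasts as host cells; luminescent beta-galactosidase reporter signal from transgenic T. cruzi replicating inside host cells; inhibitors lower the luminescence signal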
[4] = NIH3T3 cell viability loss – ATP luminescence, mouse fibroblasts, counter-screen, dose response (AID 2010); assay type: functional, cell-based;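 further: cells exposed to compound for about 90 hours before reading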
cells [5] = assay: cells
cells [6] = assay type: functional, cell-based
cells [7] = assay type: functional, cell-based; remark: listed apart in the source
[8] = viability of uninfected HEp-2 cells – cell-based, HTS, cytotoxicity control for RSV inhibitor project, dose response (AID 2410); assay type: functional; settings: human respiratory syncytial virus
Vero [9] = assay: cells; assay type: functional, cell-based; settings: Chlorocebus sabaeus
cells [10] = assay: cells; remark: listed apart in the source
[11] = Vero E6 cell cytotoxicity, dose response, cytotoxicity control for non-replicating M. tuberculosis project, secondary assay (AID 492998); assay type: functional, VeroE6; settings: Vero C1008
[12] = THP-1 cell cytotoxicity, dose response, cytotoxicity control for non-replicating M. tuberculosis project (AID 489025); assay type: functional
CAAX prenyl protease 2 = target: T2, CAAX prenyl protease 2 (Saccharomyces cerevisiae S288c, UniProt Q03530); assay type: biochemical
T2 sequence (Q03530 whole entry): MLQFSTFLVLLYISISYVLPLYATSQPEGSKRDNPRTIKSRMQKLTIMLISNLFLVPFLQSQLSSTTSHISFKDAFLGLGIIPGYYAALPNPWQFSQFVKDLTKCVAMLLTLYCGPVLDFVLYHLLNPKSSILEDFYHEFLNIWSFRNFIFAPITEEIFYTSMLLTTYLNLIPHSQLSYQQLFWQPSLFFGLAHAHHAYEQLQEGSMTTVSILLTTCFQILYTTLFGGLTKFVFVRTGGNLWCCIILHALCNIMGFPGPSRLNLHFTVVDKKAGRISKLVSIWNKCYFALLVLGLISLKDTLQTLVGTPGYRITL

cells [13] = assay type: functional
[14] = HepG2 cell cytotoxicity, dose response, cytotoxicity control for non-replicating M. tuberculosis project (AID 489018); assay type: functional; settings: Mycobacterium tuberculosis
[15] = target: DNA dC->dU-editing enzyme APOBEC-3A (Homo sapiens, UniProt P31941); assay: A3A deaminase inhibition for selectivity – biochemical, dose response (AID 504722); assay type: functional
Chain of DNA dC->dU-editing enzyme APOBEC-3A (P31941 whole entry): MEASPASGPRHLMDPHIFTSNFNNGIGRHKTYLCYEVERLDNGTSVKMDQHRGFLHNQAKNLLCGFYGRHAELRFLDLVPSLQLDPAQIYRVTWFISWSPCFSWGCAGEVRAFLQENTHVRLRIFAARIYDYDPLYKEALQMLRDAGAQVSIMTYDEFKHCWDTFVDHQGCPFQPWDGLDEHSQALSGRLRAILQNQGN

[16] = target: DNA dC->dU-editing enzyme APOBEC-3G (Homo sapiens, UniProt Q9HC16); assay: Dose Response confirmation of small molecule APOBEC3G DNA Deaminase Inhibitors via a fluorescence-based single-stranded DNA deaminase assay. [Related pubchem assays (depositor defined):AID493012, AID493028]; assay type: functional
Chain of DNA dC->dU-editing enzyme APOBEC-3G (Q9HC16 whole entry): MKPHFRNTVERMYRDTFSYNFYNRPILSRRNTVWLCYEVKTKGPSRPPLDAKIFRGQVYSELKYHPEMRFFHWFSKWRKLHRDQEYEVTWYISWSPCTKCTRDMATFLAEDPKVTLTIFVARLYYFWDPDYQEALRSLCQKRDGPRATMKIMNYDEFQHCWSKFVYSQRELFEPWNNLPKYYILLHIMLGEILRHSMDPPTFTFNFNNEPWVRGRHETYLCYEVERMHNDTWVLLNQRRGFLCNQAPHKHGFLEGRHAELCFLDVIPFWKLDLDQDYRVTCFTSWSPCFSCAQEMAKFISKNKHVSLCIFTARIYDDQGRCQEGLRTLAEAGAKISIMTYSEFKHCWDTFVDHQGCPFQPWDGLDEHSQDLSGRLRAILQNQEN

Vero [17] = assay: cells; assay type: functional; settings: Chlorocebus sabaeus
[18] = target: T3, Corticotropin-releasing factor receptor 2/Corticotropin-releasing factor-binding protein (Homo sapiens, UniProt P24387+Q13324); assay: Dose Response confirmation of uHTS hits for small molecule antagonists of the CRF-binding protein and CRF-R2 receptor complex.; assay type: functional; settings: read-out: IC50_Mean
T3 sequence (Q13324 whole entry): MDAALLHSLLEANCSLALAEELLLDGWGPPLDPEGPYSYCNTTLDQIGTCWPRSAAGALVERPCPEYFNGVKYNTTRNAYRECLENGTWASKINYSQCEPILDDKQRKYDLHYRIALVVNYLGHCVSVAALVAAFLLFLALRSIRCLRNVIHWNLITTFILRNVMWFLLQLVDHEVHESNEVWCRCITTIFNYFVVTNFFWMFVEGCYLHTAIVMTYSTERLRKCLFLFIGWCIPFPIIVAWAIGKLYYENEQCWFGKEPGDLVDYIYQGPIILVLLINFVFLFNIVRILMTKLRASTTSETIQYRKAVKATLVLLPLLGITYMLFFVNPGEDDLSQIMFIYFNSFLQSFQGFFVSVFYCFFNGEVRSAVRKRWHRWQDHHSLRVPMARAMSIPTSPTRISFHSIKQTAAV
T3 sequence (P24387 whole entry): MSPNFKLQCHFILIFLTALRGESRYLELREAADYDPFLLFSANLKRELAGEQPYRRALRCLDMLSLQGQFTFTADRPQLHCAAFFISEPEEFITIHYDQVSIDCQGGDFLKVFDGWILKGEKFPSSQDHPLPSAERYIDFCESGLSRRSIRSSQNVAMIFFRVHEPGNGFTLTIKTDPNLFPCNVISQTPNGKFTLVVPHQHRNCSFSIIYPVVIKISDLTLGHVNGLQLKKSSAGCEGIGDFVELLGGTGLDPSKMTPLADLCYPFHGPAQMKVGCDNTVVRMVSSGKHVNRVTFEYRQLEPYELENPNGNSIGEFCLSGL

[19] = target: T3, Corticotropin-releasing factor receptor 2/Corticotropin-releasing factor-binding protein; assay: activators of CRF receptor 2 with binding protein – uHTS hits, confirmation (AID 602473); assay type: functional; settings: read-out: EC50_Mean
[20] = target: T4, Rac GTPase-activating protein 1 (Homo sapiens, UniProt Q9H0H5); assay: blockers of MgcRacGAP-driven Rac1 GTP hydrolysis – biochemical, ADP Hunter fluorescence, primary and confirmatory, confirmation (AID 624330); assay type: functional
T4 sequence (Q9H0H5 whole entry): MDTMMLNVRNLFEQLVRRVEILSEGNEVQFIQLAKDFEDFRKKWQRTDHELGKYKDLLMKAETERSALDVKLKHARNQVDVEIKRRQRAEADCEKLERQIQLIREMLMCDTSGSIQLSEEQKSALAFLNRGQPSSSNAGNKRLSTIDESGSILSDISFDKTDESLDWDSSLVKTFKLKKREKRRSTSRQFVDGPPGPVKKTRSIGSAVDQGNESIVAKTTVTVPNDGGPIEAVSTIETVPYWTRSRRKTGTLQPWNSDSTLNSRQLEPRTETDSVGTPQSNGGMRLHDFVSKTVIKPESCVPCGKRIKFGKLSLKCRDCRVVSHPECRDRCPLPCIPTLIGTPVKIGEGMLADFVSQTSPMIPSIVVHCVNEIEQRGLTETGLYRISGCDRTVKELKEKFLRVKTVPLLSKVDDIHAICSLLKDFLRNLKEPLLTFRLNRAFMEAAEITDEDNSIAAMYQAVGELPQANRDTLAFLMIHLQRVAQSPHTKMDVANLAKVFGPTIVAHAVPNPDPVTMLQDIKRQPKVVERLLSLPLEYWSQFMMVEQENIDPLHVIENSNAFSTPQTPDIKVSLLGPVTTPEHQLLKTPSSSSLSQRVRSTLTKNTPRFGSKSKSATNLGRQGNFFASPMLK

With `C=CCSc1nc(-c2ccc(OC)cc2)c(C#N)c(=O)n1CC=C` the EC50 [1] was 12.7 µM (active) and the IC50 [2] was 50 µM (inactive).

With `CCCCN(C)Cc1c(C)nc2c(Cl)cccc2c1O` the EC50 [3] was < 0.1 µM (active), the EC50 [4] was > 60 µM (not active) and the EC50 (cells [5]) was 0.074 µM (active).

For `Cc1ccc(-n2nc3c(=O)n(CC(=O)NCCc4ccccc4C)nc(C)c3c2C)cc1`, the EC50 (cells [6]) was > 29.9 µM (inactive) and the IC50 (cells [7]) was > 29.9 µM (inactive).

For `COCCn1c(SC(C)C(=O)Nc2ncc(Cl)cc2Cl)nc2ccccc21` (stereo not drawn), the CC50 [8] was 25.5 µM (active), the IC50 (Vero [9]) was 8.99 µM (active) and the IC50 (cells [10]) was 14.8 µM (active).

For `CCOc1ccc(N2C(=O)C(CC(=O)Nc3ccccc3)N(Cc3ccccn3)C2=S)cc1` (stereo not drawn), the CC50 [8] was 33.6 µM (active) and the IC50 (cells [10]) was 5 µM (active).

With `CCOC(=O)Nc1ccc2c(c1)N(C(=O)CCN1CCOCC1)c1ccccc1[S+]2[O-]` (stereo not drawn) the CC50 [11] was > 20 µM (active), the EC50 [1] was > 260 µM (inactive) and the CC50 [12] was 26.7 µM (active).

For `CC(C)Cc1ccc(CN2CCCC(NC(=O)c3nn(C)c(=O)c4ccccc34)C2)cc1` (stereo not drawn), the EC50 [3] was < 0.1 µM (active), the EC50 [4] was 8.66 µM (active) and the EC50 (cells [5]) was 0.021 µM (active).

For `S=C(NCCc1ccccc1)N1CCn2cccc2C1c1cccnc1` (stereo not drawn), the EC50 [3] was < 0.1 µM (active), the EC50 [4] was > 60 µM (not active) and the EC50 (cells [5]) was 0.112 µM (active).

In the case of `CC(C)(CO)CNC1CCCN(C2Cc3ccccc3C2)C1` (stereo not drawn), the EC50 [3] is reported as < 0.1 µM (active), the EC50 [4] is reported as 10.5 µM (active) and the EC50 (cells [5]) is reported as 0.12 µM (active).

With `O=C(Nc1ccc(Cl)c([N+](=O)[O-])c1)C(Sc1ccccc1)c1ccccc1` (stereo not drawn) the EC50 [3] was 1.45 µM (active), the EC50 [4] was > 60 µM (inconclusive) and the AC50 (CAAX prenyl protease 2) was 7.77 µM (active).

In the case of `Cc1cc(C[n+]2cc(Cl)ccc2N)c2ncccc2c1`, the CC50 [8] is reported as > 50 µM (active) and the IC50 (cells [10]) is reported as 35.7 µM (active).

For `CCOC(=O)Cc1csc(NC(=O)c2c(O)c3ccccc3n(CCC(C)C)c2=O)n1`, the IC50 (cells [13]) was 2.08 µM (active), the CC50 [11] was 8.56 µM (active) and the CC50 [12] was 15.2 µM (active). The CC50 [14] was > 20 µM (active).

With `Nn1c(Cc2cccc3ccccc23)n[nH]c1=S` the IC50 [15] was > 100 µM (inactive) and the IC50 [16] was 2.94 µM (active).

In the case of `COc1cc2c(cc1OC)CN(C(=O)c1cccc(S(=O)(=O)N3CCc4ccccc43)c1)CC2`, the CC50 [8] is reported as 18.7 µM (active), the IC50 (Vero [9]) is reported as 19.5 µM (active) and the CC50 (Vero [17]) is reported as > 25 µM (active). For the same compound, the IC50 (cells [10]) was 45.9 µM (active).

In the case of `CCn1c(SC)nnc1-c1sc2cc(Cl)ccc2c1Cl`, the CC50 [8] is reported as 11.2 µM (active) and the IC50 (cells [10]) is reported as 9.26 µM (active).

With `Cn1c(S)nnc1-c1csc(-c2ccccc2)n1` the IC50 [15] was > 100 µM (inactive) and the IC50 [16] was 3.06 µM (active).

For `COc1ccccc1-c1nnc(NC(=O)c2ccc3ncsc3c2)o1`, the IC50 (cells [13]) was 7.75 µM (active), the CC50 [11] was 10.3 µM (active) and the CC50 [12] was > 40 µM (active). For the same compound, the CC50 [14] was > 20 µM (active).

With `CCOC(=O)[C@@H]1[C@H]2COc3ccc(Br)cc3[C@@H]2N2C(=O)N(c3cccc(C)c3)C(=O)[C@]12C` the AC50 (CAAX prenyl protease 2) was 4.52 µM (active).

In the case of `Cc1cc(O)nc(SCC(=O)NCCc2ccccc2)n1`, the EC50 (cells [6]) is reported as > 29.9 µM (inactive) and the IC50 (cells [7]) is reported as > 29.9 µM (inactive).

For `O=C(CNc1ccccc1)N/N=C/c1ccc([N+](=O)[O-])o1`, the IC50 [18] was > 47.1 µM (inactive), the EC50 [19] was > 53 µM (inactive) and the EC50 [3] was < 0.1 µM (active). For the same compound, the EC50 [4] was > 60 µM (not active) and the EC50 (cells [5]) was 0.091 µM (active).

In the case of `C/C(=N\NC(=O)COc1cccc(C)c1)c1ccc2ccccc2c1O`, the CC50 [11] is reported as 16.5 µM (active), the CC50 [12] is reported as 8.95 µM (active) and the CC50 [14] is reported as 19.1 µM (active).

In the case of `Cc1cc(-c2nnc(S)n2/N=C/c2ccccc2[N+](=O)[O-])[nH]n1`, the IC50 [15] is reported as > 100 µM (inactive), the IC50 [16] is reported as 6.21 µM (active) and the IC50 [20] is reported as 107 µM (active).

With `CCc1nnc(S)n1/N=C/c1ccc(N(CC)CC)cc1` the IC50 [15] was > 100 µM (inactive) and the IC50 [16] was 6.69 µM (active).

Reference: ChEMBL document CHEMBL1201862, “PubChem BioAssay data set” (2004)
